From patent US9650399B2, “Salicylic acid derivatives, pharmaceutically acceptable salt thereof, composition thereof and method of use thereof” (The Governing Council of the University of Toronto, priority 2012, dated 2017)
Read-outs that look alike come from different tables or passages of the source. Each block holds one compound with its values, some of them ahead of it.

What was measured:
[1] = test system: BTSC30M; assay: alamarBlue cell viability, BTSC 30M; assay type: cell-based, human
Experimental: (§1) First, the library was screened for biological activity against a set of three representative GBM BTSCs derived from GBM patients, including the very aggressive GBM BTSC lines, BTSC73M, BTSC30M, BTSC68EF. Dissociated BTSC spheres were seeded at 1500 cells/96-well and treated with drug compound or vehicle (DMSO) one day after plating. Cell viability following drug treatment was assessed after 72 hrs using the ALAMARBLUE™ assay (Invitrogen) according to the manufacturer's instructions. All culture experiments were performed in triplicate with a minimum of three wells per condition.
(§2) BTSC spheres were dissociated to single cells with the enzyme Accumax (Innovative Technologies), seeded at 1500 cells/96-well and treated with drug or vehicle (DMSO) one day after plating. […] BTSC spheres were dissociated to single cells as above and plated in 96 well plates in triplicate at 3000 cells/96-well. […] Cell viability following drug treatment was assessed three days later using the ALAMARBLUE™ assay (Invitrogen) according to the manufacturer's instructions. All culture experiments were performed in triplicate with a minimum of three wells per condition.

[2] = test system: BTSC68EF; assay: alamarBlue cell viability, BTSC 68EF; assay type: cell-based, human; settings: Table 4 library screen, alamarBlue; for IC50: Homo sapiens, read-out: 68EF IC50
Experimental: as §1, §2

[3] = test system: normal human fetal astrocytes (HF 2003, HF 2006, HF 2009, HF 2013); assay: toxicity in normal human fetal astrocytes; assay type: cell-based; settings: concentrations of up to 5 μM
Experimental: Given the nM cytoxicity, these compounds were assayed for biological effects in healthy cells.
GBM BTSCs were cultured from a series of tumor specimens obtained following informed consent from adult GBM patients during their operative procedure as previously described (Kelly et al, Stem Cells 2009) and approved by the University of Calgary Ethics Review Board. Briefly, BTSC cultures were initiated in serum-free defined culture medium (SFM) and gave rise to nonadherent spheres after 7 to 21 days in culture. Primary tumor spheres were expanded for several passages and then cryopreserved in 10% DMSO (Sigma Aldrich) in serum-free defined medium until use in experiments. Human fetal neural stem cells were also cultured as previously described and induced to differentiate into astrocytes by addition of 10% fetal bovine serum and removal of EGF, FGF-2 and heparan sulfate.

[4] = test system: pSTAT3 (Y705); assay: Western blot of phosphorylated STAT3 in BTSCs; assay type: cell-based, human; settings: Western blot
Description: Blots were stained with antibodies: phospho-Y705, phospho-S727, Bcl-xL, cyclin D1, PARP and Actin. Bands were visualized with the ECL PLUS™ Western Blotting Detection System and […]™ (Amersham). […] BTSC spheres were lysed in modified RIPA buffer supplemented with Complete Mini protease (Roche) and Halt phosphatase (Thermo Scientific) inhibitor cocktails. […] Blots were stained with the following antibodies: phospho-STAT3 Y705 (1:1000, Cell Signalling Technology), phospho-STAT3 S727 (1:1000, Cell Signalling Technology), STAT3 (1:1000, Santa Cruz Biotechnology), Bcl-xL (1:1000, Cell Signalling Technology), cyclin D1 (1:1000, Cell Signalling Technology) PARP (1:1000, Cell Signalling Technology) and Actin (1:2500, Santa Cruz Biotechnology). HRP conjugated secondary antibodies, goat anti-rabbit (Cell Signalling Technology) were used at 1:2000 and donkey anti-mouse, donkey anti-goat, and goat anti-rabbit, (Calbiochem) were used at 1:6000. Bands were visualized with the ECL Plus Western Blotting Detection System and Hyperfilm (Amersham).

[5] = test system: BTSC73M; assay: alamarBlue cell viability, BTSC 73M; assay type: cell-based, human; settings: for IC50 / 73M IC50 (μM): alamarBlue
Experimental: as §1, §2

[6] = test system: 147EF; assay: alamarBlue cell viability, BTSC 147EF; assay type: cell-based, human; settings: Homo sapiens, Table 4 library screen
Description: BTSC spheres were dissociated to single cells with the enzyme Accumax (Innovative Technologies), seeded at 1500 cells/96-well and treated with drug or vehicle (DMSO) one day after plating. Cytotoxicity studies were repeated independently at Sickkids Hospital using BTSC lines 25M, 67EF, 73EF, 84EF and 127EF. BTSC spheres were dissociated to single cells as above and plated in 96 well plates in triplicate at 3000 cells/96-well. In both sets of experiments drugs were used as serial dilutions within the range of 5 μM to 100 nM in the first set and 25 μM to 10 nM. Cell viability following drug treatment was assessed three days later using the ALAMARBLUE™ assay (Invitrogen) according to the manufacturer's instructions. All culture experiments were performed in triplicate with a minimum of three wells per condition. Table 4 below illustrates a screen of the library against a number of BTSCs using ALAMARBLUE™ assay.

[7] = test system: BTSCs; assay: alamarBlue cytotoxicity across BTSC lines; assay type: cell-based, human; settings: Homo sapiens
Experimental: as §1, §2

[8] = molecular target: STAT3 SH2 domain (Homo sapiens, UniProt P40763); assay: fluorescence polarization (FP) assay, STAT3; settings: 5-FAM-GpYLPQTV-NH2 probe
Chain of STAT3 SH2 domain (P40763 whole entry, the tested form may be a part): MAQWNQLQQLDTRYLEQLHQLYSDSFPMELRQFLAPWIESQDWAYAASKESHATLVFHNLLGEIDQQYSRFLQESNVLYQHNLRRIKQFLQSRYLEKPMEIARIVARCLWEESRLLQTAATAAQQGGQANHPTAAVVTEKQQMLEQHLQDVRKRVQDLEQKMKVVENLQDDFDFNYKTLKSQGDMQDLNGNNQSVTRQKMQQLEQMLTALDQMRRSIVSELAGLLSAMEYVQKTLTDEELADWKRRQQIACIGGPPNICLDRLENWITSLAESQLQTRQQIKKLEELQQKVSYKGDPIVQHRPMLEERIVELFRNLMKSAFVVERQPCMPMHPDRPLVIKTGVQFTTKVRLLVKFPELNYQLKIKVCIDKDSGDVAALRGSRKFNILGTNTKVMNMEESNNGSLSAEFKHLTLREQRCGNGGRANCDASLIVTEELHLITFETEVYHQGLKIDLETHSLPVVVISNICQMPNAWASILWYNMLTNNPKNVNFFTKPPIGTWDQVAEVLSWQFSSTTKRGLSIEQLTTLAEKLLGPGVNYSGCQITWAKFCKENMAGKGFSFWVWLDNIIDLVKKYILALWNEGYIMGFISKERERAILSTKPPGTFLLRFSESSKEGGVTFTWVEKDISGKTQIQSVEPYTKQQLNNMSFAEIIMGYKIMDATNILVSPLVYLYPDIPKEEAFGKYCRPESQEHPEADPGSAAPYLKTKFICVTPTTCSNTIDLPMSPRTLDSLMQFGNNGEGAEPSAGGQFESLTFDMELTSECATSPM
Experimental: The buffer used contained 50 mM NaCl, 10 mM Hepes, pH 7.5, 1 mM EDTA and 2 mM dithiothreitol and a final concentration of 5% DMSO.
Test compounds were dissolved in DMSO and diluted using a dilution medium consisting of 50 mM NaCl, 10 mM Hepes, pH 7.5, 1 mM EDTA, and 2 mM dithiothreitol. Fluorescently-labelled pYLPQTV peptide (FAM-pYLPQTV) was kept at a final concentration of 10 nM in the buffered solution.
The midpoint of the saturation curve was used to determine the STAT3 concentration required for the competitive fluorescent polarization assay. […] 7.5 μL of inhibitory molecules (and positive control) solution were individually added to the plate. The final inhibitory concentrations were 100 μL, 50 μL, 25A, 12.5 μL, 6.3 μL, or 3.1 μL. The 10% DMSO buffer solution was incubated for 15-30 minutes before signal measurements by the Infinite M1000.

[9] = test system: patient-derived pancreatic cancer line (Panc10.05); assay: MTS cell survival, pancreatic cancer line; assay type: cell-based; settings: Homo sapiens, Panc1005, Panc10.05, 72 h, read-out: ED50 (IC50)
Experimental: Low passage patient-derived pancreatic cancer line (Panc10.05) was plated in 96-well plates (3×10^3 per well) and allowed to attach overnight. STAT3 inhibitors 31, 41, 42 and 38 were added at indicated concentrations. Cell survival was measured 72 h after drug addition with the MTS assay.

[10] = molecular target: His-tagged STAT5; assay: surface plasmon resonance (SPR) binding, STAT5; parameters: species or system human; settings: SPR control experiment
Experimental: Interactions of His-tagged STAT3 with small molecules were investigated using SPR spectroscopy. The binding experiments were carried out on a ProteOn XPR36 (Bio-Rad) biosensor at 25° C. using the HTE sensor chip (Bio-Rad, Ontario, Canada). The flow cells of the sensor chip were loaded with a nickel solution at 30 μL/min for 120 s to saturate the Tris NTA surface with Ni(II) ions. Purified His-tagged STAT3 and STAT5 (SignalChem, British Columbia, Canada) in PBST buffer (PBS with 0.005% (v/v) Tween-20 and 0.001% DMSO pH 7.4) was injected in the first and second channels of the chip respectively in the vertical direction at a flow rate of […] for 300 s, which attained, on average, 8000 resonance unit (RU). After a wash with PBST buffer, inhibitors binding to the immobilized proteins were monitored by injecting a range of concentrations along with a blank at a flow rate of 100 μL/min for 200 s for each of these small molecules. When the injection of the small molecule inhibitor was completed, running buffer was allowed to flow over the immobilized substrates for the non-specifically bound inhibitors to dissociate for 600 s. Following dissociation of the inhibitors, the chip surface was regenerated with an injection of 1 M NaCl at a flow rate of […] for 18 s. […] Data were analyzed using ProteOn Manager Software version 3.1. […]

[11] = cited from earlier work
[12] = Homo sapiens, read-out: 30M IC50 (μM), Table 4 library screen, alamarBlue
[13] = Homo sapiens, Table 4 library screen, read-out: 73M IC50
[14] = Table 4 library screen, alamarBlue

Compound: CC(=O)Oc1cc(N(Cc2ccc(C3CCCCC3)cc2)C(=O)CN(C)S(=O)(=O)c2c(F)c(F)c(F)c(F)c2F)ccc1C(=O)O [Compound 22, 2-acetoxy-4-(N-(4-cyclohexylbenzyl)-2-(2,3,4,5,6-pentafluoro-N-methylphenylsulfonamido)acetamido)benzoic acid]
IC50 [1, 12]: 0.526 µM
IC50 ([1]; Homo sapiens, read-out: IC50 (nM) in BTSC 30M): 0.526 ± 0.013 µM
IC50 [2]: 891 nM
toxicity in normal human cells [3]: minimal toxicity
pSTAT3 inhibition potency ([4]; 0, 0.1, 0.5, 1.0 and 5.0 μM): nM inhibition of pSTAT3
suppression of pSTAT3 (Y705) ([4]; 1 μM, BTSCs): most suppression of pSTAT3 (Y705)
IC50 [5, 13]: 1.45 µM
IC50 [6]: 776 nM
EC50 ([7]; collective range over 8 BTSC lines, read-out: EC50s across all 8 BTSCs evaluated): 66 to 1140 nM
IC50 ([7]; collective range, units given in the value, read-out: IC50 values of the top four ranked compounds against BTSCs): 100 to 3800 nM

disruption of STAT3:phosphopeptide interaction / binding activity (in words) [8]: most potent inhibitor of STAT3
Compound: CN(CC(=O)N(Cc1ccc(C2CCCCC2)cc1)c1ccc(C(=O)OCOC(=O)C(C)(C)C)cc1)S(=O)(=O)c1c(F)c(F)c(F)c(F)c1F [Compound 27, (pivaloyloxy)methyl 4-(N-(4-cyclohexylbenzyl)-2-(2,3,4,5,6-pentafluoro-N-methylphenylsulfonamido)acetamido)benzoate]
30M IC50 (μM) [1, 14]: no effect
68EF IC50 (μM) [2]: no effect

Compound: CN(CC(=O)N(Cc1ccc(C2CCCCC2)cc1)c1ccccc1)S(=O)(=O)c1c(F)c(F)c(F)c(F)c1F [Compound 36, N-(4-cyclohexylbenzyl)-2-(2,3,4,5,6-pentafluoro-N-methylphenylsulfonamido)-N-phenylacetamide]
disruption of STAT3:phosphopeptide interaction / binding activity (in words) [8]: no disruption of the STAT3:phosphopeptide interaction
73M IC50 (μM) ([5]; Table 4 library screen): no effect

Compound: CN(CC(=O)N(Cc1ccc(C2CCCCC2)cc1)c1ccc(O)c(C(=O)O)c1)S(=O)(=O)c1c(F)c(F)c(F)c(F)c1F [Compound 38, 5-(N-(4-cyclohexylbenzyl)-2-(2,3,4,5,6-pentafluoro-N-methylphenylsulfonamido)acetamido)-2-hydroxybenzoic acid]
IC50 [1, 12]: 2.07 µM
IC50 [2]: 3050 nM
IC50 [9]: 4800 nM
IC50 [5, 13]: 2.55 µM

Compound: Cc1ccc(S(=O)(=O)N(C)CC(=O)N(Cc2ccc(C3CCCCC3)cc2)c2ccc(C(=O)O)cc2)cc1 [Compound 42, 4-(N-(4-cyclohexylbenzyl)-2-(N,4-dimethylphenylsulfonamido)acetamido)benzoic acid]
30M IC50 (μM) [1, 14]: no effect
IC50 [9]: 16700 nM
73M IC50 (μM) ([5]; Table 4 library screen): no effect

KD (STAT5) [10]: No binding
Compound: CC(C)C[C@H](NC(=O)[C@@H](N)Cc1ccc(OP(=O)(O)O)cc1)C(=O)N1CCC[C@H]1C(=O)N[C@@H](CCC(N)=O)C(=O)N[C@H](C(=O)N[C@H](C(N)=O)C(C)C)[C@@H](C)O [STAT3 peptide sequence]

Compound: Cucurbitacin [Cucurbitacin 1, reference compound]
EC50 ([1]; read-out: EC50 v.s. 30M, BTSC 30M): 630 nM
IC50 ([1]; read-out: IC50 (μM) 30M, Table 2, BTSC 30M, alamarBlue, 72 hrs): 0.63 ± 0.08 µM
BBB permeability [11]: poor BBB permeability
EC50 ([5]; BTSC 73M, read-out: EC50 v.s. 73M): 700 nM
IC50 ([5]; Table 2, BTSC 73M, 72 hrs, read-out: IC50 (μM) 73M): 0.7 ± 0.06 µM
